Experimental data from patent publication US9615577B2, “Herbicidally active cyclic dione compounds, or derivatives therefor, substituted by a phenyl which has an alkynyl-containing substituent” (Syngenta Limited, priority 2012, dated 2017).

What was measured:
Type in all cases: in vivo
Setaria faberi (SETFA) [1] = assay: Test 1A glasshouse assay for herbicidal activity, post-emergence; conditions: 312 h, evaluated after 13 days, read-out: percentage phytotoxicity SETFA
In short: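 Pre-em: spray 1 d after sowing; post-em: spray after 8 d cultivation. Formulation in acetone/water (50:50), 0.5% Tween 20. Glasshouse 24/16 °C d/n, 14 h light, 65% humidity. Readout: visual % damage at 13 d.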

[2] = system: Beta vulgaris (BEAVA, sugar beet); assay: Test 1B glasshouse assay for herbicidal activity, pre-emergence; conditions: 480 h, 250 g/ha, 20 DAA, read-out: percentage phytotoxicity BEAVA
Procedure: (§1) Seeds of a variety of monocotyledonous and dicotyledonous test plants are sown in standard soil in pots. The plants are cultivated for one day (for pre-emergence) or for about 12 days (range=10-13 days) (for post-emergence) under controlled conditions in a glasshouse (warm climate species at 24/18° C., cool climate species at 20/16° C., both at day/night; 16 hours light; 65% humidity).
(§2) An “instant formulation”, known as the “IF50”, containing 50 g/liter (i.e. 5% w/v) of the “technical” (i.e. unformulated) active ingredient is prepared by dissolving the active ingredient in a mixture of organic solvents and emulsifier, details of which are provided in the Table below. This IF50 is then mixed with a small, variable amount of acetone to aid dissolution, before addition of a 0.2% v/v aqueous solution of the adjuvant X-77 (which is a mixture of alkyl aryl polyoxyethylene glycols and free fatty acids in isopropanol, CAS Registry number 11097-66-8), as the aqueous diluent, to form an aqueous spray solution which contains a predetermined concentration of the active ingredient (which varies depending on the application rate of the active ingredient to the plants) and 0.2% v/v of the adjuvant X-77. This aqueous spray solution is then sprayed onto the plants, after one day's cultivation (for pre-emergence) or after about 12 days' cultivation (for post-emergence).
(§3) The test plants are then grown on, in a glasshouse (greenhouse) under controlled conditions (at either 24/18° C. or 20/16° C. (day/night) as mentioned above; 16 hours light; 65% humidity) and are watered twice daily. Either 15 days after application of the herbicide (15 DAA) (for post-emergence), or 20 days after application of the herbicide (20 DAA) (for pre-emergence), the test plants are evaluated visually, and an assessed percentage phytotoxicity score is given for each herbicidal application on each plant species (where 100%=total damage to plant; 0%=no damage to plant).
(§4) Cool climate crop plants: Triticum aestivum (TRZAW, winter wheat), Brassica napus (BRSNN, rape, also called oilseed rape or rapeseed), Beta vulgaris (BEAVA, sugar beet).

[3] = system: Brassica napus (BRSNN, rape); assay: as above; conditions: 480 h, 250 g/ha, 20 DAA, read-out: percentage phytotoxicity BRSNN
Procedure: as §1, §2, §3, §4

[4] = system: Triticum aestivum (TRZAW, winter wheat); assay: as above; conditions: 480 h, 250 g/ha, 20 DAA, read-out: percentage phytotoxicity TRZAW
Procedure: as §1, §2, §3, §4

[5] = system: Glycine max (GLXMA, soybean); assay: as above; conditions: 480 h, 250 g/ha, 20 DAA, read-out: percentage phytotoxicity GLXMA
Procedure: as §1, §2, §3
Warm climate crop plants: Glycine max (GLXMA, soybean).

[6] = system: Beta vulgaris (BEAVA, sugar beet); assay: Test 1B glasshouse assay for herbicidal activity, post-emergence; conditions: 360 h
In short: (§5)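 Plants grown in soil at 20/16° C day/night, 16 h light, 65% humidity; sprayed after 1 day (pre-emergence) or ~12 days (post-emergence) with formulated compound in 0.2% v/v X-77 adjuvant. Visual % phytotoxicity scored 20 DAA (pre) or 15 DAA (post).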

[7] = system: Brassica napus (BRSNN, rape); assay: as above; conditions: 360 h
In short: as §5

[8] = system: Triticum aestivum (TRZAW, winter wheat); assay: as above; conditions: 360 h
In short: as §5

[9] = system: Glycine max (GLXMA, soybean); assay: as above; conditions: 360 h
In short: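 Soybean sprayed 1 day after sowing (pre-emergence) or at about 12 days (post-emergence) with aqueous active ingredient plus 0.2% v/v X-77 adjuvant. Plants grown at 24/18 °C day/night, 16 h light, 65% humidity. Visual % phytotoxicity (100% = total damage) scored at 20 DAA pre-emergence, 15 DAA post-emergence.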

[10] = system: Alopecurus myosuroides (ALOMY); assay: as above; conditions: 360 h
In short: (§6)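 Herbicidal effect is expressed as visually assessed percentage plant damage at 15 DAA (post-emergence) and 20 DAA (pre-emergence). Application used an instant formulation of 50 g/L technical material, diluted into 0.2% v/v X-77, onto plants kept at 20/16 °C day/night.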

Avena fatua (AVEFA) = assay: as above; conditions: 360 h
In short: as §6

Lolium perenne (LOLPE) = assay: as above; conditions: 360 h
In short: as §6

[11] = system: Digitaria sanguinalis (DIGSA); assay: as above; conditions: 360 h
In short: (§7)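 Warm-climate glasshouse, 24/18° C., 16 h light, 65% humidity. Spray: IF50 (50 g/liter stock) in 0.2% v/v X-77; pre-emergence 1 day post-sowing, post-emergence ~12 days (10-13). Visual phytotoxicity 0-100%, at 15 DAA post, 20 DAA pre.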

[12] = system: SORVU (Sorghum bicolor (L.) Moench ssp. Bicolor, or Sorghum vulgare Pers.); assay: as above; conditions: 360 h
In short: as §7

Setaria faberi (SETFA) [13] = assay: as above; conditions: 360 h
In short: as §7

[14] = system: Echinochloa crus-galli (ECHCG); assay: as above; conditions: Echinochloa crus-galli
In short: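 Plants grown about 12 days (10–13) in glasshouse (24/18 °C day/night, 16 h light, 65% humidity) then sprayed with IF50 formulation diluted in 0.2% v/v X-77 adjuvant at set application rates. Percent phytotoxicity scored visually 15 days after application (0 = no damage, 100 = total damage).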

SMILES: CC#Cc1cc(Cl)c(C2C(=O)C3CCC(C)(C2=O)C3(C)C)c(OC)c1 (stereo not drawn) [Compound A-17]
- pest or weed control at 250 g/ha (Setaria faberi (SETFA) [1]): 90%
- plant injury at 250 g/ha [2]: 0%
- plant injury at 250 g/ha [3]: 0%
- plant injury at 250 g/ha [4]: 0%
- plant injury at 250 g/ha [5]: 10%
- plant injury at 250 g/ha ([6]; 250 g/ha application rate): 10%
- plant injury at 250 g/ha ([7]; 250 g/ha application rate): 10%
- plant injury at 250 g/ha ([8]; 250 g/ha application rate): 10%
- plant injury at 250 g/ha ([9]; 250 g/ha application rate): 10%
- pest or weed control at 250 g/ha ([10]; 250 g/ha application rate): 50%
- pest or weed control at 250 g/ha (Avena fatua (AVEFA); 250 g/ha application rate): 0%
- pest or weed control at 250 g/ha (Lolium perenne (LOLPE); 250 g/ha application rate): 20%
- pest or weed control at 250 g/ha ([11]; 250 g/ha application rate): 70%
- pest or weed control at 250 g/ha ([12]; 250 g/ha application rate): 80%
- pest or weed control at 250 g/ha (Setaria faberi (SETFA) [13]; 250 g/ha application rate): 80%
- pest or weed control at 250 g/ha ([14]; 250 g/ha application rate): 90%

SMILES: CC#Cc1cc(C)c(C2C(=O)CC(c3ccccn3)CC2=O)c(C)c1 (stereo not drawn) [Compound A-13]
- pest or weed control at 30 g/ha (Setaria faberi (SETFA) [1]; 30 g/ha): 90%
- pest or weed control at 250 g/ha (Setaria faberi (SETFA) [1]): 100%
- plant injury at 250 g/ha [2]: 10%
- plant injury at 250 g/ha [3]: 70%
- plant injury at 250 g/ha [4]: 20%
- plant injury at 250 g/ha [5]: 20%
- plant injury at 125 g/ha ([6]; 125 g/ha application rate): 20%
- plant injury at 125 g/ha ([7]; 125 g/ha application rate): 70%
- plant injury at 125 g/ha ([8]; 125 g/ha application rate): 30%
- plant injury at 125 g/ha ([9]; 125 g/ha application rate): 60%
- pest or weed control at 125 g/ha ([10]; 125 g/ha application rate): 30%
- pest or weed control at 125 g/ha (Avena fatua (AVEFA); 125 g/ha application rate): 20%
- pest or weed control at 125 g/ha (Lolium perenne (LOLPE); 125 g/ha application rate): 70%
- pest or weed control at 125 g/ha ([11]; 125 g/ha application rate): 80%
- pest or weed control at 125 g/ha ([12]; 125 g/ha application rate): 80%
- pest or weed control at 125 g/ha (Setaria faberi (SETFA) [13]; 125 g/ha application rate): 80%
- pest or weed control at 125 g/ha ([14]; 125 g/ha application rate): 80%
